Test results taken from US10350219B2, “Antimicrobial compositions and methods of making the same” (priority 2013, dated 2019).

Key:
[1] = Steam sterilization (thermal stability, discoloration); format: physicochemical; conditions: hydrogel
Procedure: (b) Steam Sterilization • One steam sterilization cycle was imposed on gel prototypes to evaluate their ability to withstand elevated temperatures. The gel samples contained in 15 ml or 50 ml PP tubes or other non-hydrogel prototypes (in sealed foil pouches) were examined post sterilization for any adverse temperature effect on its color, viscosity, texture, phase separation etc.
A majority of the hydrogel prototypes of the present disclosure were tested for their ability to withstand elevated temperatures simply by subjecting them to one steam sterilization cycle. The test samples experienced temperature rises from 20 C to 122 C over 15 min, followed by constant temperature of 122 C for 15 min and finally a cool down from 122 C to ˜40 C over 3 h. Thus, the test samples experienced nearly 3.5 h of hostile temperature condition.
“Steam sterilizable” or “heat stable” or “inert to heat” is defined as having no visible sign of discoloration (color change following exposure that will add shade of black, brown, yellow or purple) after one steam sterilization cycle (122 C for 15 min) that includes periods of warming up and final cool down to room temperature (<40 C).

[2] = Table Lamp Light Exposure Test (TLE), discoloration; format: physicochemical; conditions: gel with glycerol 10%, clay 4%, silver 0.054% weight; for Gel color after continuous light exposure: After 24 h: 60 W table lamp; for Gel color after continuous light exposure: Fresh: 60 W table lamp at 1 to 1.5 feet
Procedure: (a) Table Lamp Light Exposure Test (TLE) • The samples of the said compositions contained in either glass vials or 15 ml PP tubes (BD Falcon) were placed under a table lamp (turned on) at a distance of 12 to 15 inches for continuous exposure. The incandescent lamp wattage was 60 W. After the desired duration of exposure, the test samples were examined for visible discoloration by holding it against a white plain paper. Non-hydrogel samples were examined against the control samples protected from light.

rats = conditions: cited from earlier work
[3] = theor. silver content 110 ppm, ratio of cyanurate/silver ions 5
[4] = theor. silver content 220 ppm, ratio of cyanurate/silver ions 2.5

Compound | Gel color after continuous light exposure: After 24 h [2] | Gel color after continuous light exposure: Fresh [2] | also measured
O=c1[n-]c(=O)[nH]c(=O)[nH]1.O=c1[n-]c(=O)[nH]c(=O)[nH]1.[Ag+].[Na+] [Na[Ag(C3N3O3H2)2], Sodium silver cyanurate ligand complex Na[Ag(C3N3H2O3)2] or its hydrate] |  |  | Color after steam sterilization [1, 3]: No discoloration; Color before steam sterilization [1, 3]: Hazy to clear; Color after steam sterilization [1, 4]: No discoloration; Color before steam sterilization [1, 4]: Hazy to clear
O=C([O-])c1ccccc1.[Ag+] [Silver Benzoate] | Brown black |  | 
C=C(CC(=O)[O-])C(=O)[O-].[Ag+].[Ag+] [Silver Itaconate] | Brown black |  | 
O=C(O)c1ccccc1 [benzoic acid] |  |  | LD50 (rats): 2530 mg/kg of body weight
Silver Sorbate | Brown black |  | 
Silver Gluconate | Brown black |  | 
O=C([O-])CO.[Ag+] [Silver Glycolate] | Brown grey |  | 
O=C([O-])C(O)C(O)C(=O)O.[Ag+] (centres unmarked) [Silver Mono-tartrate] | Brown black | Hazy gel | 
O=C([O-])/C=C\C(=O)O.[Ag+] [Silver Mono-maleate] | Brown yellow | Smooth hazy gel | 
O=c1[nH]c(=O)[nH]c(=O)[nH]1 [cyanuric acid] |  |  | LD50 (rats): 7700 mg/kg of body weight; lethal dose LD50 (rats; internet source): 7.70 g/kg of body weight
Silver Benzene sulfonate | Brown black | Brown after 0.5 h | 
O=C1[N-]S(=O)(=O)c2ccccc21.[Ag+] [Silver Saccharinate] |  | Yellow brown | 
CCC(=O)[O-].[Ag+] [Silver Propionate] | Brown black |  | 
